This is an account of results in PMC8173604 (Cell, 2021).

“Also recorded” adds a separate entry of the source. Read-outs that look alike come from different tables or passages of the source.

In assay [1] the test system is CD8+ T cells of HLA-A*02:01 subjects. It is filed as cell-based, human.
Assay [2] deals with CD8+ T cells of convalescent COVID-19 individuals. To be noted: ref Tarke et al., 2020; cited from earlier work.
Assay [3] concerns CD8+ T cells of HLA-B*07:02 subjects. Type of assay: cell-based, human.
For assay [4], the target named is HLA-A*26:01 (Homo sapiens, UniProt P04439, A114D/A173T/A270S/D101N/D185E/E277Q/E87N/F33Y/G231S/I121R/I218V/K168Q/L180W/L300P/L318F/P208A/P217A/Q86R/Q94H/R138Q/S129P/T187R/T323A/T345S/V100A/V358M). It is filed as binding.
The target of assay [5] is HLA-A*02:01 (Homo sapiens, UniProt P04439, D140Y/D185E/D98H/E176V/E277Q/G131W/G231S/I119V/I121R/I166T/I218V/L300P/L318F/N151K/N90K/P208A/P217A/Q86G/Q94H/R138H/R169H/T345S). It is filed as binding.

As to KLWAQCVQL [reference compound], the “CD8+ T cell response (in words)” value in assay [1] is recorded as “weak responses”. For the sequence QLTPTWRVY, the “T cell responses in convalescent COVID-19 individuals expressing the predicted alleles” value in assay [2] is on record as “elicit T cell responses”.

Regarding RPPIFIRRL, in assay [3], the “CD8+ T cell response (in words)” value was “positive reactivity”. On to ELPDEFVVVTV, for which, in assay [1] (nine HLA-A*02:01 samples (seven COVID-19 convalescent and two unexposed)), the “CD8+ T cell response (in words)” value was “top five reactive peptides; also recorded: strongest CD8+ response among all tested HLA-I peptides”. In addition, the “binding to A*26:01 (in words)” value in assay [4] is reported as “binds”. In assay [5], the “binding to A*02:01 (in words)” value is “binds”.
